# From US20250145961A1, “GENERATING BONE MARROW ORGANOIDS” (The University of Birmingham, priority 2022, published 2025)
# B1: VEGFC: Vascular Endothelial Growth Factor C (Stem Cell Technologies), growth factor supplemented into medium (protein, UniProt P49767 112-227, looked up)
# Vascular endothelial growth …: AHYNTEILKSIDNEWRKTQCMPREVCIDVGKEFGVATNTFFKPPCVSVYRCGGCCNSEGLQCMNTSTSYLSKTLFEITVPLSQGPKPVTISFANHTSCRCMSKLDVYRQVHSIIRR
# Key:
# Type in all cases: cell-based, human
# bone marrow organoids = experiment: TGFβ-induced fibrosis of bone marrow organoids (immunofluorescence, qRT PCR); conditions: for TGFβ-induced collagen deposition / TGFβ-induced αSMA expression: bone marrow organoids stimulated with TGFβ, N=4 and 3 respectively, Kruskal-Wallis with multiple comparisons
# Source text: FIG. 7: Treatment of organoids with TGFβ induced fibrosis of the organoids, modelling bone marrow fibrosis seen in patients. […] Increase of signal in these images is indicative of treatment inducing classic markers of fibrosis. […] Finally, we confirmed the utility of this model to screen for potential inhibitors of bone marrow fibrosis. […] (N=4 and 3 respectively, significance testing with Kruskal-Wallis with multiple comparisons).
# To model myelofibrosis (MF), we treated bone marrow organoids with Transforming Growth Factor β (TGFβ, Peprotech) at various concentrations for 72 hours. Treated organoids were maintained in this media before collection via pasteurette and fixation for immunofluorescence (whole organoids or embedded sections), or centrifugation for RNA extraction and subsequent quantitative Real Time Polymerase Chain Reaction (qRT PCR assessment of changes in gene expression). RNA extraction was performed using the Qiagen RNAEasy micro kit to the manufacturer's instructions.
# qRT-PCR was performed on an Applied Biosystems 7500 Fast Real Time PCR System. Primers were obtained from Integrated DNA Technologies (IDT) as pre-validated PrimeTime qPCR primers. Reactions were prepared from lug of isolated RNA converted to cDNA with the High Capacity cDNA Reverse Transcription Kit (Applied Biosystems) under manufacturer recommended thermal cycling conditions. Synthesised cDNA was diluted 5-fold and stored at −20° C. until required.
# A master mix was prepared for each qPCR reaction which was made up of 10 μl TaqMan® Universal Primer MasterMix (thermos), 1 μl of forward and reverse primers, and 2 μl of cDNA at a final concentration of 5 ng/mL. Calculations for fold changes in expression were performed using the ΔΔCT method, with human GAPDH used as a housekeeping gene, and undifferentiated iPSC used as controls for expression levels.
# Immunofluorescence was performed using a Zeiss LSM880 confocal microscope (25×0.8 LD LCI plan apo 0.8 dual immersion objective). Samples were prepared first by fixation in 10% formalin, before 3×5 min successive washes with PBS. Samples were then blocked overnight in a detergent blocking solution comprised of 2% goat serum (Thermo), 1% Bovine Serum Albumin (BSA) in 50 mL of PBS. 250 μl of Triton X100 and Tween-20 (Sigma) were added, as well as 500 μl sodium deoxycholate (Sigma) to permeabilise samples and encourage antibody preparation. Primary antibody incubations were performed overnight at 4° C., before 4×5-minute successive washes in PBS. Samples were then incubated overnight once more at 4° C. in secondary antibody mixes: DAPI for nuclear labelling, Alexa-488, Alxea-568, and Alexa-647 (Thermo) depending on the species mix of antibodies present.
# MF-patient organoids = experiment: Bone marrow organoids engrafted with CD34+ cells from patients with myelofibrosis, screen of potential therapies (immunofluorescence of paraffin embedded sections); conditions: organoids seeded with MF patient cells for 14 days, treatment at day 7 post engraftment, 0.1 and 1 uM, vs DMSO treated
# Procedure: FIG. 12: Organoids engrafted with CD34^+ cells from patients with myelofibrosis can be used to screen potential therapies in a patient specific approach. Bone marrow organoids were seeded with cells from patients with myelofibrosis for 14 days in total, with pharmacological interventions staged at day 7 post engraftment. […] Samples were also treated with the inhibitor SB431542, the BET bromodomain inhibitor JQ1, and the current clinical treatment for myelofibrosis ruxolitinib (at 0.1 and 1 uM respectively). […] (B) Representative immunofluorescence imaging of paraffin embedded sections.
# Cells were isolated from cryopreserved peripheral blood or bone marrow mononuclear cells and stained with CellVue Claret Far Red Fluorescent Cell Linker Mini Kit for General Membrane Labeling (Sigma Aldrich, Cat #MINCLARET-1KT) following the instructions provided by the manufacturer. Organoids were seeded with 5000 cells per wells and cultured for 8-14 days in StemPro. On collection day, organoids were fixed for imaging or digested for assessment by flow cytometry or RNA extraction and qRT PCR.
# Sections were blocked using 2% Goat Serum (Thermo Fisher Scientific, Cat #31872) 1% Bovine Serum Albumin (BSA) (Sigma, Cat #A9418) prior to primary antibody labelling with antibody diluted in 1% BSA, sequential PBS washes, and finally secondary labelling with AlexaFluor conjugates. […]
# organoid endothelium = experiment: Addition of VEGFC to the organoid growth factor cocktail, specialisation of organoid endothelium
# Source text: FIG. 4: Addition of VEGFC induces specialisation of organoid endothelium to resemble bone marrow sinusoidal endothelium. The protocol thus far generated an organoid producing the key lineages of the central human bone marrow. However, bone marrow sinusoidal endothelium, is a highly specialised for regulating haematopoeitic cell behaviours.
# FIG. 5: VEGFC induces development of CD34+ sinusoidal vascular network in organoids. […] Immunofluorescence images show significant staining of the vessels in the VEGFA+C treated sample when compared to VEGFA. (B) Close association of CD41+ megakaryocytes with vessels in the organoids. […] (C) CD41+ megakaryocytes are shown forming pro-platelet extensions in sections of BM organoids.
# Once fully polymerised, 3D cultures were supplemented in Phase III sprouting medium which was comprised of APELII medium supplemented with 5% Foetal Bovine Serum (FBS), 5 U/mL Heparin Sulfate, 50 ng VEGFA, 10 ng each Interleukin 3 (IL3) and Interleukin 6 (IL6), as well as 25 ng each of SCF, Flt3, Thrombopoietin (TPO), Erythropoietin (EPO), Granulocyte Colony Stimulating Factor (G-CSF) (Stem Cell Technologies), FGF2, and BMP4. Cells were maintained in this media formulation until d12, with media changes every 72 hours. From d5 onwards, media changes are performed as 60:40 splits fresh: conditioned medium. […]
molecule,measurement,setting,value
NC(=O)c1ccc(-c2nc(-c3ccc4c(c3)OCO4)c(-c3ccccn3)[nH]2)cc1 [SB431542],TGFβ-induced collagen deposition,bone marrow organoids,significantly reduced
same,TGFβ-induced αSMA expression,bone marrow organoids,significantly reduced
TGFβ,"expression of α-smooth muscle actin (α-SMA) and collagen I (COL1A1), staining","bone marrow organoids; 72-hours of stimulation, compared to an untreated control",increase in the expression
same,canonical fibrosis markers by qRT PCR,bone marrow organoids; various concentrations of TGFβ for 72 hours,dose dependent increase
Cc1sc2c(c1C)C(c1ccc(Cl)cc1)=N[C@@H](CC(=O)OC(C)(C)C)c1nnc(C)n1-2 [JQ1],"COL1A1 level, immunofluorescence",MF-patient organoids,significant reductions
same,"αSMA level, immunofluorescence",MF-patient organoids,significantly reduced
same,TGFβ-induced collagen deposition,bone marrow organoids,significantly reduced
same,TGFβ-induced αSMA expression,bone marrow organoids,significantly reduced
B1,"CD34 expression of organoid vessels, immunofluorescence",organoid endothelium; VEGFA+C treated compared to VEGFA,induces vessels in the organoid that maintain the expression of CD34
same,"expression of adhesion molecules and hematopoietic regulatory factors (VEGFR3, VCAM1, VLA4, FGF4, CXCR4) in endothelial cells","organoid endothelium; VEGFC added to VEGFA, compared to VEGFA or VEGFC alone",improved the expression
